This note sets out measurements from patent US20190255144A1, “SPECIFIC OLIGOPEPTIDES AS ANTI-ANGIOGENIC DRUGS” (NEURONAX, priority 2014, published 2019).

Entries after “also recorded” stand apart in the source; their conditions may differ.

Data set [1] concerns chorioallantoic membrane (CAM) vascularization. Nature of the data set: Treatments on the chorioallantoic membrane (CAM), fluorescein angiography. It counts as in vivo, chicken embryo. The settings on record: impregnated sponge on CAM at ED9; oligopeptide 250 μg/mL (9 hours), VEGF 10 ng/mL; listed as oligopeptide according to the invention. From the text: In fact, TSP-1 is known for inducing the apoptosis of endothelial cells. […] It is also a decisive process under certain physiological and pathological conditions (cancers in particular). This mechanism is controlled by numerous factors having either an inhibitor potential or an activator. So as to evaluate the main properties of these in vivo factors, the most common model is the CAM (chorioallantoic membrane) model from the chicken embryo (Ribatti et al., 2000). It offers the advantage of making it possible to test the pro- or anti-angiogenic factors during an active angiogenesis phase between the embryonic stages 4j and 10j. The major effects of the various molecules can therefore be evaluated in vivo. The model of the CAM can also be used in experimental tumor development. The grafting of human cancer cells onto the surface of the CAM is carried out in the 9-day embryonic stage. Three days after the grafting at ED12, the formation of a tumor is visible at the surface of the CAM. The latter can be treated topically during the 48 hours that follow this stage, and the tumors are sampled at ED14j. The fertilized eggs (Haas Poultry Farm, Strasbourg, France) are kept for 24 hours at 18° C. before the incubation is started up. […] The embryonic stages are determined from tables of Hamburger and Hamilton (H and H, 1951). […]

Another data set relates to HUVECs or HBMECs. The data set can be described thus: Proliferation of endothelial cells. It counts as cell-based. The settings on record: in vitro.
In another data set the test system is HBMECs. Nature of the data set: Migration of endothelial cells. It counts as cell-based.
The nature of a further data set: Toxicity on injection. The settings on record: injections of 20 mg/kg. It counts as in vivo.

As to “—W—S-G-W—S—S—C—S—R—S—C-G- (WSGWSSCSRSCG; Oligopeptide derived from SCO-Spondin) [NX]”, the “Vascularization / microvascularization of the CAM (in words)” value in data set [1] was “inhibition of vascularization; also recorded: comparable to that of the Bevacizumab”. Also, the “Proliferation of HUVECs or HBMECs” value in the data set on HUVECs or HBMECs was “does not modulate the proliferation”. For the same substance, the “Migration of the HBMECs induced by glioblastoma tumor cells” value in the data set on HBMECs (brought into contact with the U87-MG or HBMECs) was “inhibits”. Besides, in the data set on HBMECs (in the presence of VEGF or bFGF), the “Migration in the presence of an angiogenic factor” value is “promotes the migration”. For the same substance, the Toxicity entry in “Toxicity on injection” is on record as “no toxicity”.
